Source: PubChem BioAssay (NCI)
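Briefly, cells in 96-well plates were exposed to five compound concentrations for 48 h, and endpoints were estimated by linear interpolation. GI50 is the concentration that inhibits growth by half. At the TGI there is no net growth.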

Assays:
Experiment in all cases: DTP human tumour cell line panel, 48 h
[1] = test system: HCT-116 colon
[2] = test system: SK-MEL-5 melanoma
[3] = test system: MCF7 breast
[4] = test system: HOP-92 NSCLC
[5] = test system: HCT-15 colon
[6] = test system: UACC-257 melanoma
[7] = test system: RXF 393 renal
[8] = test system: BT-549 breast
[9] = test system: NCI-H460 lung
[10] = test system: SNB-75 CNS
[11] = test system: NCI-H226 lung
[12] = test system: OVCAR-8 ovarian
[13] = test system: LOX IMVI melanoma
[14] = test system: A549 NSCLC
[15] = test system: T-47D breast
[16] = test system: HT29 colon
[17] = test system: SK-OV-3 ovarian
[18] = test system: MDA-MB-435
[19] = test system: ACHN renal
[20] = test system: SK-MEL-28 melanoma
[21] = test system: HOP-62 NSCLC
[22] = test system: KM12 colon
[23] = test system: DU-145 prostate
[24] = test system: SF-539 CNS
[25] = test system: CAKI-1 renal
[26] = test system: CCRF-CEM leukemia
[27] = test system: NCI-H522 lung
[28] = test system: SW-620 colon
[29] = test system: NCI-H23 lung
[30] = test system: SF-295 CNS
[31] = test system: SF-268 CNS
[32] = test system: MOLT-4 leukemia
[33] = test system: SNB-19 CNS
[34] = test system: OVCAR-4 ovarian
[35] = test system: IGROV1 ovarian
[36] = test system: MALME-3M melanoma
[37] = test system: UO-31 renal
[38] = test system: TK-10 renal
[39] = test system: HL-60(TB) leukemia
[40] = test system: SR leukemia
[41] = test system: K-562 leukemia
[42] = test system: HS 578T breast
[43] = test system: HCC-2998 colon
[44] = test system: PC-3 prostate
[45] = test system: SN12C renal
[46] = test system: MDA-MB-231 breast
[47] = test system: 786-0 renal
[48] = test system: M14 melanoma
[49] = test system: SK-MEL-2 melanoma
[50] = test system: UACC-62 melanoma
[51] = test system: RPMI-8226 leukemia
[52] = test system: A498 renal
[53] = test system: COLO 205 colon
[54] = test system: U251 CNS
[55] = test system: OVCAR-3 ovarian
[56] = test system: OVCAR-5 ovarian
[57] = test system: EKVX NSCLC
[58] = test system: NCI/ADR-RES ovarian

COc1ccc2c(c1OC)-c1c(c3ccc([N+](=O)[O-])cc3c(=O)n1CCCN)C2=O
GI50 [1]: 4.99 µM | TGI [1]: 9.23 µM | GI50 [2]: 4.33 µM | TGI [2]: 8.82 µM | GI50 [3]: 1.89 µM | TGI [3]: 13.9 µM | GI50 [4]: 12.3 µM | TGI [4]: 27.1 µM | GI50 [5]: 3.37 µM | TGI [5]: 7.11 µM | GI50 [6]: 4.97 µM | TGI [6]: 9.74 µM | GI50 [7]: 4.32 µM | TGI [7]: 10.1 µM | GI50 [8]: 4.19 µM | TGI [8]: 9.24 µM | GI50 [9]: 3.47 µM | TGI [9]: 12.3 µM | TGI [10]: 1.56 µM | GI50 [11]: 3.95 µM | TGI [11]: 8.79 µM | GI50 [12]: 3.53 µM | TGI [12]: 12.9 µM | GI50 [13]: 3.18 µM | TGI [13]: 7.26 µM | GI50 [14]: 4.37 µM | TGI [14]: 9.27 µM | TGI [15]: > 20.1 µM | GI50 [16]: 1.6 µM | TGI [16]: 8 µM | GI50 [17]: 7.9 µM | TGI [17]: 17.6 µM | GI50 [18]: 12.7 µM | TGI [18]: 28.2 µM | GI50 [19]: 0.749 µM | TGI [19]: 3.33 µM | GI50 [20]: 5.34 µM | TGI [20]: 10.4 µM | GI50 [21]: 10.7 µM | TGI [21]: 23.9 µM | GI50 [22]: 4.31 µM | TGI [22]: 10.7 µM | GI50 [23]: 3.36 µM | TGI [23]: 7.8 µM | GI50 [24]: 4.42 µM | TGI [24]: 9.02 µM | GI50 [25]: 9.49 µM | TGI [25]: 24.7 µM | GI50 [26]: 1.27 µM | TGI [26]: 3.64 µM | GI50 [27]: 3.54 µM | TGI [27]: 9.33 µM | GI50 [28]: 0.573 µM | TGI [28]: 4.81 µM | GI50 [29]: 4.7 µM | TGI [29]: 9.19 µM | GI50 [30]: 5.72 µM | TGI [30]: 11.5 µM | GI50 [31]: 3.54 µM | TGI [31]: 13.6 µM | GI50 [32]: 0.692 µM | TGI [32]: 3.68 µM | TGI [33]: > 20.2 µM | GI50 [34]: 5.49 µM | TGI [34]: 12.1 µM | GI50 [35]: 2.02 µM | TGI [35]: 6.78 µM | GI50 [36]: 4.97 µM | TGI [36]: 10.5 µM | GI50 [37]: 3.81 µM | TGI [37]: 7.89 µM | GI50 [38]: 5.72 µM | TGI [38]: 12 µM | GI50 [39]: 1.35 µM | TGI [39]: 2.63 µM | GI50 [40]: 0.1 µM | TGI [40]: 0.272 µM | GI50 [41]: 1.01 µM | TGI [41]: 3.94 µM | GI50 [42]: 5.32 µM | TGI [42]: 12 µM | GI50 [43]: 3.87 µM | TGI [43]: 7.8 µM | GI50 [44]: 4.59 µM | TGI [44]: 10.5 µM | GI50 [45]: 3.79 µM | TGI [45]: 7.86 µM | GI50 [46]: 1.87 µM | TGI [46]: 3.95 µM | GI50 [47]: 4.76 µM | TGI [47]: 9.22 µM | GI50 [48]: 7.27 µM | TGI [48]: 20.8 µM | GI50 [49]: 4.56 µM | TGI [49]: 9.77 µM | GI50 [50]: 3.52 µM | TGI [50]: 7.32 µM | GI50 [51]: 1.01 µM | TGI [51]: 3.32 µM | GI50 [52]: 3.03 µM | TGI [52]: 14.3 µM | GI50 [53]: > 100 µM | TGI [53]: > 100 µM | GI50 [54]: 1.83 µM | TGI [54]: 5.76 µM | GI50 [55]: 16.2 µM | TGI [55]: 32.6 µM | GI50 [56]: 5.31 µM | TGI [56]: 9.74 µM | GI50 [57]: 4.98 µM | TGI [57]: 11 µM | GI50 [58]: 4.83 µM | TGI [58]: 9.76 µM
